From PubChem BioAssay (NCI)
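Following 48 hours of exposure in 96-well plates, responses at five concentrations were used to interpolate endpoints linearly. The concentration for 50% growth inhibition is given as GI50. TGI is the concentration that stops growth completely.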

How the values were obtained:
Assay in all cases: NCI tumour cell line growth inhibition, 48 h
[1] = test system: CCRF-CEM leukemia
[2] = test system: IGROV1 ovarian
[3] = test system: M14 melanoma
[4] = test system: NCI-H522 lung
[5] = test system: OVCAR-3 ovarian
[6] = test system: SK-OV-3 ovarian
[7] = test system: SNB-19 CNS
[8] = test system: HOP-92 NSCLC
[9] = test system: UO-31 renal

SMILES	GI50 [1] [µM]	TGI [1] [µM]	GI50 [2] [µM]	TGI [2] [µM]	GI50 [3] [µM]	TGI [3] [µM]	GI50 [4] [µM]	TGI [4] [µM]	GI50 [5] [µM]	TGI [5] [µM]	GI50 [6] [µM]	TGI [6] [µM]	GI50 [7] [µM]	TGI [7] [µM]	TGI [8] [µM]	TGI [9] [µM]
COc1cc(OC)c2sc(-c3ccc(-n4cncc4-c4ccc(OC)c(OC)c4)cc3)nc2c1	> 100	> 100	56.1	> 100	> 100	> 100	5.27	76.9	3.85	35.9	> 100	> 100	> 100	> 100		
CCOC(=O)C1Cc2ccc3c4c(ccc(c24)C1)CC(C(=O)OCC)C3		> 100		> 100		> 100		> 100		> 100		> 100		> 100	> 100	> 100
CC1(C)COC2C(N(Cc3ccccc3)Cc3ccccc3)C(=O)N21 (stereo unspecified)		> 100		> 100		56.2		45.6		> 100		66.1		71.8	80.5	> 100
C[N+](C)(C)CC1CCCCC1=O (stereo unspecified)		20.2		> 100		30.2		36.2		34.5		> 100		> 100		> 100
COC(=O)C(=O)C(CC(=O)Nc1ccc(C)cc1)C(=O)OC (stereo unspecified)		> 100		> 100		> 100		> 100		> 100		> 100		> 100	> 100	> 100
COc1ccc(O)c(C(=O)CCC(=O)O)c1		> 100		> 100		> 10		> 100		> 10		> 100		> 100	> 100	> 100
CC1=Nc2ccccc2SC(c2c(Cl)cccc2Cl)C1 (stereo unspecified)		2.26		3.31		3.07		2.23		0.885		6.44		2.7	3.62	3.09
CCCC(=O)N[C@H]1CCc2cc(OC)c(OC)c(OC)c2-c2ccc(SC)c(=O)cc21		> 100		> 100		34.7		< 0.01		< 0.0423		5.75		> 94.6	2.51	> 100
